This note sets out measurements from PMC3934385, “Componential Profile and Amylase Inhibiting Activity of Phenolic Compounds from Calendula officinalis L. Leaves” (The Scientific World Journal, 2014).

In brackets after ≈: the same amount, converted by molar mass.

In the assay the target is T1, amylase from Aspergillus niger.
T1 construct: gene aamA
Nature of the assay: starch hydrolysis, glucose oxidase/peroxidase coupled, A510 microplate. The format is biochemical. The following applies: 2% starch, phosphate pH 5.0, preincubation 20 min 45°C, then 30 min 50°C. From the text: starch hydrolysis, glucose oxidase/peroxidase coupled, A510 microplate on amylase from Aspergillus niger
As for `COc1cc(C(=O)OC[C@H]2OC(O)[C@H](O)[C@@H](O)[C@@H]2O)ccc1O` (mixture of isomers) [compound 6, 6′-O-vanilloyl-β-D-glucopyranose], the “IC50” value is 79.18 µg/mL.
Still for that read-out and setting: the same measure for `C[C@H]1O[C@H](O[C@H]2[C@H](O)[C@@H](O)[C@@H](O[C@H]3[C@H](O)[C@@H](O)C(O)O[C@@H]3CO)O[C@@H]2CO)[C@H](O)[C@@H](O)[C@@H]1N[C@H]1C=C(CO)[C@@H](O)[C@H](O)[C@H]1O` (stereo partly shown) [Acarbose, reference compound]: 9.54 ± 0.32 µg/mL (≈ 14.8 µM); for `O=C(O[C@@H]1O[C@H](CO)[C@@H](O)[C@H](O)[C@H]1O)c1ccc(O)cc1` [compound 1, 1′-O-p-hydroxybenzoyl-β-D-glucopyranose]: above 100 µg/mL.
As to `O=C(OC[C@H]1OC(O)[C@H](O)[C@@H](O)[C@@H]1O)c1ccc(O)cc1` (stereo partly drawn) [compound 2, 6′-O-p-hydroxybenzoyl-β-D-glucopyranose], the concentration for half-maximal inhibition (IC50) was above 100 µg/mL.
For the compound `O=C(O[C@@H]1O[C@H](CO)[C@@H](O)[C@H](O)[C@H]1O)c1ccc(O)c(O)c1` [compound 3, 1′-O-protocatechuoyl-β-D-glucopyranose], the “IC50” value was found to be 62.46 µg/mL (≈ 197 µM).
The same measure, in the same setting: the same measure for `O=C(OC[C@H]1OC(O)[C@H](O)[C@@H](O)[C@@H]1O)c1ccc(O)c(O)c1` (stereo partly drawn) [compound 4, 6′-O-protocatechuoyl-β-D-glucopyranose]: 66.52 µg/mL (≈ 210 µM); for `COc1cc(C(=O)O[C@@H]2O[C@H](CO)[C@@H](O)[C@H](O)[C@H]2O)ccc1O` [compound 5, 1′-O-vanilloyl-β-D-glucopyranose]: 73.69 µg/mL (≈ 223 µM); for `O=C(O)/C=C/c1ccc(O)c(O)c1` [compound 7, caffeic acid]: 2.53 µg/mL (≈ 14 µM).
Still for that read-out and setting: the result for `O=C(/C=C/c1ccc(O)c(O)c1)O[C@@H]1C[C@](O)(C(=O)O)C[C@@H](OC(=O)/C=C/c2ccc(O)c(O)c2)[C@H]1O` [compound 9, 3,5-di-O-caffeoylquinic acid] reads 25.63 µg/mL (≈ 49.6 µM).
The same measure, in the same setting: the same measure for `O=C(/C=C/c1ccc(O)c(O)c1)O[C@@H]1C[C@](OC(=O)/C=C/c2ccc(O)c(O)c2)(C(=O)O)C[C@@H](O)[C@H]1O` [compound 10, 1,5-di-O-caffeoylquinic acid]: 37.15 µg/mL (≈ 71.9 µM); for `O=C(/C=C/c1ccc(O)c(O)c1)O[C@@H]1[C@H](O)C[C@@](O)(C(=O)O)C[C@H]1OC(=O)/C=C/c1ccc(O)c(O)c1` [compound 11, 4,5-di-O-caffeoylquinic acid]: 26.65 µg/mL (≈ 51.6 µM).
For the compound `O=c1ccc2ccc(O)cc2o1` [compound 12, umbelliferone], the half-maximal inhibitory concentration (IC50) was above 100 µg/mL.
Same read-out and setting: the same measure for `O=c1ccc2cc(O)c(O)cc2o1` [compound 13, aesculetin]: 1.02 µg/mL (≈ 5.73 µM).
Still for that read-out and setting: the result for `O=c1ccc2cc(O[C@@H]3O[C@H](CO)[C@@H](O)[C@H](O)[C@H]3O)c(O)cc2o1` [compound 14, aesculin] reads above 100 µg/mL; that for `O=c1ccc2cc(O)c(O[C@@H]3O[C@H](CO)[C@@H](O)[C@H](O)[C@H]3O)cc2o1` [compound 15, cichoriin], above 100 µg/mL.
In the case of `COc1cc2ccc(=O)oc2cc1O` [compound 16, scopoletin], the “IC50 (μg mL^-1)” value is listed as ~ 100 μg mL^−1.
Turning to `O=c1c(O)c(-c2ccc(O)c(O)c2)oc2cc(O)cc(O)c12` [compound 17, quercetin], the “IC50” value is 1.79 µg/mL (≈ 5.92 µM).
Same read-out and setting: the result for `O=c1c(O[C@@H]2O[C@H](CO)[C@@H](O)[C@H](O)[C@H]2O)c(-c2ccc(O)c(O)c2)oc2cc(O)cc(O)c12` [compound 18, isoquercitrin] reads 15.45 µg/mL (≈ 33.3 µM); that for `CC(=O)OC[C@H]1O[C@@H](Oc2c(-c3ccc(O)c(O)c3)oc3cc(O)cc(O)c3c2=O)[C@H](O)[C@@H](O)[C@@H]1O` [compound 19, quercetin-3-O-(6′′-acetyl)-β-D-glucopyranoside], 32.70 µg/mL (≈ 64.6 µM).
As for `C[C@@H]1O[C@@H](OC[C@H]2O[C@@H](Oc3c(-c4ccc(O)c(O)c4)oc4cc(O)cc(O)c4c3=O)[C@H](O)[C@@H](O)[C@@H]2O)[C@H](O)[C@H](O)[C@H]1O` [compound 20, rutin], the “IC50” value was found to be 89.85 µg/mL (≈ 147 µM).
Same read-out and setting: the same measure for `COc1cc(-c2oc3cc(O)cc(O)c3c(=O)c2O)ccc1O` [compound 21, isorhamnetin]: 2.64 µg/mL (≈ 8.35 µM).
`COc1cc(-c2oc3cc(O)cc(O)c3c(=O)c2O[C@@H]2O[C@H](CO)[C@@H](O)[C@H](O)[C@H]2O)ccc1O` [compound 22, isorhamnetin-3-O-β-D-glucopyranoside]: the half-maximal inhibitory concentration (IC50) came to 23.41 µg/mL (≈ 48.9 µM).
As to `COc1cc(-c2oc3cc(O)cc(O)c3c(=O)c2O[C@@H]2O[C@H](COC(C)=O)[C@@H](O)[C@H](O)[C@H]2O)ccc1O` [compound 23, isorhamnetin-3-O-(6′′-acetyl)-β-D-glucopyranoside], the “IC50 (μg mL^-1)” value is on record as ~ 100 μg mL^−1.
Take `COc1cc(-c2oc3cc(O)cc(O)c3c(=O)c2O[C@@H]2O[C@H](CO[C@@H]3O[C@@H](C)[C@H](O)[C@@H](O)[C@H]3O)[C@@H](O)[C@H](O)[C@H]2O)ccc1O` [compound 24, narcissin]: the half-inhibitory concentration (IC50) is above 100 µg/mL.
Turning to `COc1cc(-c2oc3cc(O)cc(O)c3c(=O)c2O[C@@H]2O[C@H](CO[C@@H]3O[C@@H](C)[C@H](O)[C@@H](O)[C@H]3O)[C@@H](O)[C@H](O)[C@H]2O[C@@H]2O[C@@H](C)[C@H](O)[C@@H](O)[C@H]2O)ccc1O` [compound 25, thyphaneoside], the “IC50” value was above 100 µg/mL.

One may read the IC50 as the concentration that inhibits the measured activity by half. Low readings indicate higher potency, high ones lower potency.
